Assay results taken from patent publication US8053627B2, “Methods for treating demyelination disorders” (University of Chicago, priority 2005, dated 2011).
Values joined by “and” are separate entries in the source; they are usually repeats but may differ in a detail not shown here. Equal values may be shown once. Read-outs that look alike come from different tables or passages of the source.

Experiments:
[1] = test system: EAE-induced demyelination; conditions: for Mean of maximum clinical score (mean ± S.D.): 0–5 point scale; for Day of onset of disease (PID: postimmunization day): n = 25; for CD3 T cell infiltration in the lumbar spinal cord / EAE-induced demyelination: myelin, axons and oligodendrocytes in the lumbar spinal cord: PID 17
[2] = test system: Hippocampal organotypic cultures; experiment: Hippocampal organotypic cultures (HOC), in vitro model of myelination, MBP Western blot; format: cell-based; conditions: 7 days of 100 U/ml IFN-γ exposure
Method: HOCs, were prepared and maintained as described previously (Kunkler and Kraig (1997) J Cereb Blood Flow Metab. 17:2643), and were maintained in vitro for 7 days before use. SAL at various concentrations was combined with 100 U/ml IFN-γ and added to the HOC cultures for 7 days. […] After 7 days of 100 U/ml IFN-γ exposure, the levels of MBP decreased approximately 80% in the HOCs (FIG. 29).

[3] = test system: oligodendrocytes and myelin; experiment: IFN-γ-overexpressing mice crossed to PLP/SOCS1 mice, clinical and histological evaluation at postnatal day 21; format: in vivo; conditions: for oligodendrocyte density: corpus callosum, postnatal day 21; for G ratio (axon diameter/fiber diameter ratio): hypomyelination defined as G ratio>0.8
Method: IFN-γ-overexpressing mice were crossed to the PLP/SOCS1 mice in double-transgenic, (MBP/IFN-γ×PLP/SOCS1) and triple-transgenic (GFAP/tTA×TRE/IFN-γ×PLP/SOCS1) mating systems. MBP/IFN-γ×PLP/SOCS1 (172×PLP/SOCS1) mating was performed according to a standard mating protocol. The GFAP/tTA×TRE/IFN-γ×PLP/SOCS1 matings were performed in a 2-step mating process: GFAP/tTA mice were initially crossed to PLP/SOCS1 mice, and double-positive (184×PLP/SOCS1) offspring were then crossed to the TRE/IFN-γ lines 110 and 67, separately. This second mating step was performed according to the previously described “tet-off” protocol. Doxycycline 0.05 mg/ml (Sigma-Aldich) was added to the water of impregnated female mice until embryonic day 14, after which the animals were switched back to normal water, thereby allowing initiation of IFN-γ transcription, which peaks during the postnatal period (Lin et al., 2005).
The litters of the mating systems (F1 generation) were examined daily and sacrificed at postnatal day 21. Clinical evaluation included behavioral observation and challenged ladder walking to elicit tremor. Histological examination included quantitation of the number and density of oligodendrocytes and examination of the myelination patterns. Brain tissue was simultaneously obtained from each animal at the time of sacrifice to verify and measure the expression of IFN-γ and Flag-SOCS1 (see below). The clinical and histological findings were subsequently stratified according to genotype. All animal procedures were conducted in compliance with the National Institutes of Health Guide for Care and Use of Laboratory Animals and were approved by the Institutional Animal Care and Use Committee at The University of Chicago.
Oligodendrocyte cell density was assessed digitally using Axiovision software, at postnatal day 21, as previously described (Lin et al., 2005). The brains were sectioned sagittally through the corpus callosum dividing the brain in two symmetrical halves. Ten frozen sections from each half were prepared at 7 μm thickness, and numbered in the sequence of their preparation. The brains of three animals per study group were prepared in this fashion. Following the CC1 immunostaining the corresponding area of corpus callosum of each section was digitally selected and the corresponding total area obtained. CC1 cell counting was performed manually within the selected areas of each section, and the number of CC1 positive cells per square area (mm^2) calculated. The results were presented as mean±SD of CC1 (+) cells/mm^2 with n=3 animals per study group.
Myelination patterns of the examined animals were assessed at postnatal day 21 by calculating the percent unmyelinated axons and ratio of the axon/fiber diameters (G ratio) with Image J software (National Institutes of Health, Bethesda, Md.) as previously described (Lin at al., 2005). The brains were sectioned sagittally through the corpus callosum dividing the brain in two symmetrical halves. Approximately 2 mm^3 samples from the genu and the splenum of both halves of corpus callosum were obtained using a Wild M3C stereotype microscope. The orientation of the specimen in the resin blocks yielding axonal cross-sections (well seen myelin rings) was chosen, and established by toluedine blue staining of a few sample sections. The resin blocks with the chosen orientation were processed for electron microscope examination. Randomly selected areas were examined and ten representative pictures from both genu and splenum corpus callosum were obtained at 12000× magnification. The number of unmyelinated axons was assessed by manual counting of axons that lacked myelin and were encircled solely by their own plasma membrane. All unmyelinated axons present in the representative images were counted, and their percentage calculated by examining a total of five hundred axons per tissue sample. […]

[4] = PERK+/+ background, listed as INF-γ
[5] = PERK+/+ background, peak of disease

Substance: IFN-γ: pleotropic cytokine secreted by activated T lymphocytes and natural killer cells; delivered to the CNS by transgene or added as recombinant protein
- Incidence of death ([1]; DOX− double mice): 0/25
- Mean of maximum clinical score (mean ± S.D.) ([1]; DOX− double mice): 1.63 ± 0.51
- MBP mRNA in the spinal cord vs age-matched naïve mice ([1]; DOX− double mice, PID17): not significantly decreased
- Day of onset of disease (PID: postimmunization day) ([1]; DOX− double mice): 14.7 ± 1.4
- Incidence of hind limb paralysis ([1]; DOX− double mice, listed as INF-γ): 2 of 25 and 2/25
- Incidence of death ([1]; DOX− triple mice (PERK+/−)): 3/25
- Incidence of hind limb paralysis ([1]; DOX− triple mice (PERK+/−)): 18/25
- Mean of maximum clinical score (mean ± S.D.) ([1]; DOX− triple mice (PERK+/−)): 2.71 ± 1.11
- Day of onset of disease (PID: postimmunization day) ([1]; DOX− triple mice (PERK+/−)): 13.6 ± 0.8
- CD3 positive T cell infiltration in the spinal cord ([1]; EAE onset): did not significantly affect
- CD11b positive monocyte infiltration in the spinal cord ([1]; EAE onset): increased
- PERK-eIF2α pathway in oligodendrocytes (p-PERK, p-eIF2α colocalization with CC1) ([1]; EAE onset): markedly activated
- expression of iNOs, TNF-a, IL-2, IL-12 and IL-10 in the spinal cord (real time PCR) ([1]; EAE onset, PID14): strongly enhanced
- expression of iNOs, TNF-a, IL-2, IL-12 and IL-10 in the spinal cord (real time PCR) ([1]; EAE onset, PID14, listed as INF-γ): increased
- CD3 T cell infiltration in the lumbar spinal cord ([1]; PERK+/+ background): reduced
- EAE-induced demyelination: myelin, axons and oligodendrocytes in the lumbar spinal cord ([1]; PERK+/+ background): protected
- CD3 T cell infiltration in the lumbar spinal cord [1, 4]: lower
- EAE-induced demyelination: myelin, axons and oligodendrocytes in the lumbar spinal cord [1, 4]: remained almost intact
- expression of IL-2 in spinal cord [1, 5]: decreased
- expression of IL-12 in spinal cord [1, 5]: decreased
- expression of IL-23 in spinal cord [1, 5]: decreased
- expression of IL-2 and IL-5 in the spinal cord (real time PCR) ([1]; PID14): did not affect
- amelioration of EAE ([1]; mice heterozygous for the PERK mutation): did not ameliorate
- CD11b positive monocyte infiltration ([1]; peak of disease): did not change
- expression of IL-5 in spinal cord ([1]; peak of disease): did not significantly affect
- expression of IL-10 in spinal cord ([1]; peak of disease): did not significantly affect
- expression of iNOs or TNF-γ ([1]; peak of disease): did not significantly affect
- decrease of MBP levels in the HOCs [2]: approximately 80%
- Incidence of tremor ([3]; 172 × PLP/SOCS1 littermates, ten mice per group): 0%
- oligodendrocytes lost ([3]; 184/67 system): approximately 40%
- percentage of unmyelinated axons ([3]; 184/67 system): 57±7%
- oligodendrocyte density ([3]; 184/67 system): 79±9 CC1 (+) cells/mm^2
- G ratio (axon diameter/fiber diameter ratio) ([3]; 184/67 system): 0.95±0.04
- oligodendrocytes lost ([3]; 184/110 system): approximately 20%
- percentage of unmyelinated axons ([3]; 184/110 system): 41%±6
- oligodendrocyte density ([3]; 184/110 system): 115±8 CC1 (+) cells/mm^2
- G ratio (axon diameter/fiber diameter ratio) ([3]; 184/110 system): 0.89±0.02
- MHC class I molecule expression (immunostaining) ([3]; MBP/IFN-γ and MBP/IFN-γ×PLP/SOCS1 brains): upregulated expression
